These results are taken from PubChem BioAssay (NCI).

Among the test systems are EKVX NSCLC; HOP-62 NSCLC; M14 melanoma; MDA-MB-231 breast; MDA-MB-435; MOLT-4 leukemia; SF-539 CNS; SN12C renal; UACC-257 melanoma; HS 578T breast.
Test in all cases: inhibition of tumour cell growth, NCI panel, 48 h

Molecules are shown by their SMILES.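 Where inhibition never reached the appropriate level, the endpoint shown equals the highest concentration tested. Otherwise, values were interpolated linearly from a five-concentration, 48-hour dose response in 96-well plates. At the TGI there is no net growth.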 Bounds are passed on as bounds.

For `Cc1ccccc1-n1c(=O)c2ncn(CCCl)c2n(-c2ccccc2C)c1=S`, the TGI with EKVX NSCLC, with HOP-62 NSCLC, with M14 melanoma, in the experiment on MDA-MB-231 breast, in the experiment on MDA-MB-435 and in the experiment on MOLT-4 leukemia was greater than 100 µM in each case. Besides, the TGI with SF-539 CNS, in the experiment on SN12C renal and in the experiment with UACC-257 melanoma was greater than 100 µM each time.
Consider `CCC[C@@H](O)C[C@@H]1CCC[C@H](C[C@@H](O)CC)N1C`, for which the TGI in the experiment on EKVX NSCLC, in the experiment with HOP-62 NSCLC, in the experiment with M14 melanoma, in the experiment on MDA-MB-231 breast, in the experiment with MDA-MB-435 and in the experiment with MOLT-4 leukemia was greater than 100 µM each time. Also, the TGI in the experiment with SF-539 CNS, in the experiment on SN12C renal and in the experiment with UACC-257 melanoma was greater than 100 µM each time.
For `N#CN=C(N(Cc1ccccc1)Cc1ccccc1)N(Cc1ccccc1)Cc1ccccc1`, the TGI in the experiment with EKVX NSCLC, with HOP-62 NSCLC, in the experiment with M14 melanoma, in the experiment on MOLT-4 leukemia, in the experiment with SF-539 CNS and in the experiment on SN12C renal was greater than 100 µM in each case. In the experiment on UACC-257 melanoma, this compound registered a TGI greater than 100 µM.
As to `CCN(CC)CCC(=O)Nc1ccc2c(c1)C(=O)c1ccc(NC(=O)CCN(CC)CC)cc1C2=O`, the TGI was 15.1 µM in the experiment with EKVX NSCLC; 17.6 µM in the experiment with HOP-62 NSCLC; 27.1 µM in the experiment with M14 melanoma; 12.2 µM in the experiment with MOLT-4 leukemia; 15.3 µM with SF-539 CNS; 13.4 µM in the experiment on SN12C renal. In addition, the TGI with UACC-257 melanoma is 29.7 µM.
`COC(=O)[C@H](Cc1c[nH]c2ccccc12)NP(=O)(O)OCC1C=CC(n2cc(C)c(=O)[nH]c2=O)O1` (stereo not given in full): the TGI with EKVX NSCLC, with HOP-62 NSCLC, in the experiment with HS 578T breast, with MDA-MB-231 breast, in the experiment with MDA-MB-435 and with MOLT-4 leukemia was greater than 100 µM each time. This compound also returned a TGI in the experiment with SN12C renal greater than 100 µM.
On to `CC[C@@]1(C[C@H]2C[C@@]3(C(=O)OC)c4[nH]c5ccccc5c4CCN3C2=O)COC2(CCCCC2)O1`, for which the TGI with EKVX NSCLC is greater than 100 µM; in the experiment on HOP-62 NSCLC it was greater than 100 µM; with HS 578T breast, 87 µM; with M14 melanoma it was greater than 100 µM; with MDA-MB-231 breast, greater than 100 µM; with MOLT-4 leukemia, greater than 100 µM. The TGI in the experiment on SF-539 CNS is greater than 100 µM; with SN12C renal, greater than 100 µM; with UACC-257 melanoma, 64.2 µM.
Take `CCCN=C1CCN(Cc2ccccc2)c2ccccc2N1`: the TGI with EKVX NSCLC is greater than 100 µM; in the experiment with HOP-62 NSCLC, greater than 100 µM; in the experiment with HS 578T breast, 36.2 µM; in the experiment on M14 melanoma, 31.3 µM; with MDA-MB-231 breast, 59.9 µM; in the experiment with MDA-MB-435, 45 µM. Further, the TGI is 34.1 µM in the experiment with MOLT-4 leukemia, greater than 100 µM in the experiment with SN12C renal and 29.2 µM in the experiment on UACC-257 melanoma.
For `COc1cc([C@@H]2c3cc4c(cc3[C@@H](Nc3ccc([N+](=O)[O-])cc3C(=O)c3ccccc3)[C@H]3COC(=O)[C@H]23)OCO4)cc(OC)c1OC`, the TGI with EKVX NSCLC was greater than 100 µM; with HOP-62 NSCLC, greater than 100 µM; with HS 578T breast, greater than 100 µM; with M14 melanoma, greater than 100 µM; with MDA-MB-435, 0.319 µM; in the experiment on MOLT-4 leukemia, greater than 100 µM. Further, the figures for the TGI in the experiment on SF-539 CNS, with SN12C renal and in the experiment with UACC-257 melanoma were 0.502 µM, greater than 100 µM and greater than 100 µM, respectively.
As for `COc1nc(N)c(C(=O)CCl)c(=O)n1C`, the TGI came out at 31.7 µM in the experiment on EKVX NSCLC; 44.7 µM in the experiment on MOLT-4 leukemia; 32.6 µM with SF-539 CNS; 45.2 µM with SN12C renal; 31.3 µM in the experiment with UACC-257 melanoma.
Take `CCc1ccc(CCN2CCCCC2)nc1`: the TGI in the experiment with EKVX NSCLC, in the experiment on HOP-62 NSCLC, with HS 578T breast, in the experiment on M14 melanoma, in the experiment on MDA-MB-231 breast and in the experiment on MDA-MB-435 was greater than 100 µM throughout. The TGI in the experiment on MOLT-4 leukemia, in the experiment on SN12C renal and in the experiment with UACC-257 melanoma was greater than 100 µM each time.
In the case of `CC(=O)NC1=C(NCCC(C)C)C(=O)c2ccccc2C1=O`, the TGI with EKVX NSCLC, with HOP-62 NSCLC, in the experiment with M14 melanoma, in the experiment with MOLT-4 leukemia, in the experiment with SF-539 CNS and in the experiment on SN12C renal was greater than 50 µM throughout. This compound also showed a TGI in the experiment on UACC-257 melanoma greater than 50 µM.
Turning to `O=C(Nc1ccc(C2=NCCN2)cc1)c1cncc(C(=O)Nc2ccc(C3=NCCN3)cc2)c1`, the TGI in the experiment on EKVX NSCLC, in the experiment on HOP-62 NSCLC, in the experiment with MOLT-4 leukemia, in the experiment on SF-539 CNS, in the experiment with SN12C renal and in the experiment with UACC-257 melanoma was greater than 100 µM in each case.
`c1ccc(N=C2SC3=Nc4cccc5cccc(c45)N3C2=Nc2ccccc2)cc1`: the TGI with HOP-62 NSCLC, in the experiment on HS 578T breast, in the experiment with M14 melanoma, in the experiment with MDA-MB-231 breast, with MDA-MB-435 and in the experiment with MOLT-4 leukemia was greater than 100 µM each time. In the experiment on SN12C renal, this compound gave a TGI greater than 100 µM.
On to `Cc1ccsc1/C=N/Nc1ncccn1`, for which the TGI in the experiment with EKVX NSCLC, in the experiment with HOP-62 NSCLC, in the experiment on HS 578T breast, with M14 melanoma, in the experiment on MDA-MB-231 breast and in the experiment on MDA-MB-435 was greater than 100 µM each time. Further, the TGI with MOLT-4 leukemia, in the experiment on SN12C renal and with UACC-257 melanoma was greater than 100 µM in each case.
As to `Oc1ccc(-c2nc(-c3cccnc3)c(-c3ccc(F)cc3)[nH]2)cc1`, the TGI with EKVX NSCLC turned out to be 41.7 µM; in the experiment with HOP-62 NSCLC, 36.7 µM; in the experiment on HS 578T breast, 46.4 µM; in the experiment with M14 melanoma, 32.9 µM; in the experiment with MDA-MB-231 breast it was 41.7 µM; with MDA-MB-435, 31.1 µM. The TGI in the experiment on MOLT-4 leukemia is 33.2 µM; in the experiment on SN12C renal, 54.6 µM; with UACC-257 melanoma, 31.5 µM.
As for `Cc1cccc2c(=O)cc(-c3ccccc3)[nH]c12`, the TGI in the experiment with EKVX NSCLC is greater than 100 µM; in the experiment with HOP-62 NSCLC, 42.6 µM; in the experiment with M14 melanoma, greater than 100 µM; in the experiment with MOLT-4 leukemia, greater than 100 µM; in the experiment with SF-539 CNS, 37.1 µM; with SN12C renal it was greater than 100 µM. For the same compound, the TGI with UACC-257 melanoma was greater than 100 µM.
